The values below come from US10544147B2, “Purine inhibitors of human phosphatidylinositol 3-kinase delta” (MERCK SHARP & DOHME CORP., priority 2016, dated 2020).

A value given as a limit tells only on which side of the number the result lay.

In one experiment the target is PI3Kalpha (Homo sapiens (Human), UniProt P42336). Kind of experiment: HTRF PI3K biochemical assay, alpha isoform (selectivity versus delta). Particulars: ratio PI3K-alpha IC50 value/PI3K-delta IC50 value. As for the experimental part:
(§1) HTRF PI3K Biochemical Assay to Measure Intrinsic Potency of Compound Inhibitors
(§2) This loss of signal is nonlinear with respect to both increasing product and time. This non-linear detection will impact accuracy of IC50 calculations; therefore, there is a need for a correction factor to obtain more accurate IC50 values. This correction is derived from a PIP3 standard curve run in a separate assay plate. All data were calculated using the ratio of acceptor (APC) to donor (Europium) fluorescence in each well of the assay plate. […] An IC50 was then calculated fitting the % inhibition data to the equation: % inhibition=min+(Max−min)/1+([inhibitor]/IC50)^n) where min is the % inhibition with inhibitor, max is the signal in DMSO control, and n is the Hill slope.
(§3) The biological data was collected using the methodology described above.
The determination of relative selectivity for a given compound is defined as the relative ratio of the (PI3K-alphaIC50 value/PI3K-delta IC50 value).

For the next experiment, the target named is PI3Kdelta (Homo sapiens (Human), UniProt O00329). In words: HTRF PI3K biochemical assay, delta isoform. As to conditions: 0.3 nM enzyme, 100 uM ATP, 50 uM PIP2; form screened (neutral or TFA salt). The protocol: as §1, §2, §3
PI3Kdelta, sequence (O00329 whole entry, canonical isoform): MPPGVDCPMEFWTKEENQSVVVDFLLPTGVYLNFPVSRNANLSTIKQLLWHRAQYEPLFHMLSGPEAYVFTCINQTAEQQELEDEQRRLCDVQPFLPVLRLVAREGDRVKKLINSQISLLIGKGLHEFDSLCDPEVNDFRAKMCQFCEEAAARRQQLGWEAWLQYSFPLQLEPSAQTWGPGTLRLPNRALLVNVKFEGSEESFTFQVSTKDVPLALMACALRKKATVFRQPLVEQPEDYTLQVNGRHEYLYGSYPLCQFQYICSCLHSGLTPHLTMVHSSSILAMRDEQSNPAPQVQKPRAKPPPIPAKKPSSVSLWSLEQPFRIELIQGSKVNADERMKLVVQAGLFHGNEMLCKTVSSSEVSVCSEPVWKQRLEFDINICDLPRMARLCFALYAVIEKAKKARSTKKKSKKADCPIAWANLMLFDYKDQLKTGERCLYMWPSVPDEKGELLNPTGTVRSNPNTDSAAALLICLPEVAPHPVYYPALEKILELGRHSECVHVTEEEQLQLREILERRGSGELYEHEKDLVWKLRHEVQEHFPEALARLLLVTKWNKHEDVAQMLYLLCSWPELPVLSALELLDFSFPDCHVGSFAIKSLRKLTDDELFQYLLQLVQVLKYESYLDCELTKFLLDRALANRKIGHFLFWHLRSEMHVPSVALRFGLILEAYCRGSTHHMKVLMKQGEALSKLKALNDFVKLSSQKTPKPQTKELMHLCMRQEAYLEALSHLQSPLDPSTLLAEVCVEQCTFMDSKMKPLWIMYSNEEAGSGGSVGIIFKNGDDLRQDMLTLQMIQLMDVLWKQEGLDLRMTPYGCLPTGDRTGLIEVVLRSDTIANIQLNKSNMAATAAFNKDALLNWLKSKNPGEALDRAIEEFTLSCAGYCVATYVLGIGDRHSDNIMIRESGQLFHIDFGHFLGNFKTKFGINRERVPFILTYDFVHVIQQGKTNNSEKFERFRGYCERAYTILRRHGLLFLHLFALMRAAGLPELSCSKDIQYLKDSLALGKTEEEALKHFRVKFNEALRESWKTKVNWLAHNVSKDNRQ
PI3Kdelta, sequence (P27986 whole entry partner, canonical isoform): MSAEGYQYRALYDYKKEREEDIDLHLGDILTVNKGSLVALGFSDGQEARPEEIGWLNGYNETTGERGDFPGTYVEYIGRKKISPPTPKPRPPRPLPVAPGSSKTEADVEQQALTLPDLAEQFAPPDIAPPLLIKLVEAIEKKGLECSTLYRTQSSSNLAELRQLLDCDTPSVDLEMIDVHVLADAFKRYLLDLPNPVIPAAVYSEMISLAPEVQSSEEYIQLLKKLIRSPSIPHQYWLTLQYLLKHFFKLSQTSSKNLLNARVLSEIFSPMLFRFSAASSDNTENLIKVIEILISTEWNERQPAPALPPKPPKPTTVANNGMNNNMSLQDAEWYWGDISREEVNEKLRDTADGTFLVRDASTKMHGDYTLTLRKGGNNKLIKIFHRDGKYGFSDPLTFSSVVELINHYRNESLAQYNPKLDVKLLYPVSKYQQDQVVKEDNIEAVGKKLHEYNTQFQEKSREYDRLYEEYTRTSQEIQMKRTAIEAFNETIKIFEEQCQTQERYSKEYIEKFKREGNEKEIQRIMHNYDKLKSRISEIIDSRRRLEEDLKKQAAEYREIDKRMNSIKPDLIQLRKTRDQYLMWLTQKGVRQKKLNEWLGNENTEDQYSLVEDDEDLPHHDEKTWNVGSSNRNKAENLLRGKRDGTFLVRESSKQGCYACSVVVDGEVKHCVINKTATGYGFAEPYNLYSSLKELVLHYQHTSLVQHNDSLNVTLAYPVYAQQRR

PI3Kalpha, sequence (P42336 whole entry, canonical isoform): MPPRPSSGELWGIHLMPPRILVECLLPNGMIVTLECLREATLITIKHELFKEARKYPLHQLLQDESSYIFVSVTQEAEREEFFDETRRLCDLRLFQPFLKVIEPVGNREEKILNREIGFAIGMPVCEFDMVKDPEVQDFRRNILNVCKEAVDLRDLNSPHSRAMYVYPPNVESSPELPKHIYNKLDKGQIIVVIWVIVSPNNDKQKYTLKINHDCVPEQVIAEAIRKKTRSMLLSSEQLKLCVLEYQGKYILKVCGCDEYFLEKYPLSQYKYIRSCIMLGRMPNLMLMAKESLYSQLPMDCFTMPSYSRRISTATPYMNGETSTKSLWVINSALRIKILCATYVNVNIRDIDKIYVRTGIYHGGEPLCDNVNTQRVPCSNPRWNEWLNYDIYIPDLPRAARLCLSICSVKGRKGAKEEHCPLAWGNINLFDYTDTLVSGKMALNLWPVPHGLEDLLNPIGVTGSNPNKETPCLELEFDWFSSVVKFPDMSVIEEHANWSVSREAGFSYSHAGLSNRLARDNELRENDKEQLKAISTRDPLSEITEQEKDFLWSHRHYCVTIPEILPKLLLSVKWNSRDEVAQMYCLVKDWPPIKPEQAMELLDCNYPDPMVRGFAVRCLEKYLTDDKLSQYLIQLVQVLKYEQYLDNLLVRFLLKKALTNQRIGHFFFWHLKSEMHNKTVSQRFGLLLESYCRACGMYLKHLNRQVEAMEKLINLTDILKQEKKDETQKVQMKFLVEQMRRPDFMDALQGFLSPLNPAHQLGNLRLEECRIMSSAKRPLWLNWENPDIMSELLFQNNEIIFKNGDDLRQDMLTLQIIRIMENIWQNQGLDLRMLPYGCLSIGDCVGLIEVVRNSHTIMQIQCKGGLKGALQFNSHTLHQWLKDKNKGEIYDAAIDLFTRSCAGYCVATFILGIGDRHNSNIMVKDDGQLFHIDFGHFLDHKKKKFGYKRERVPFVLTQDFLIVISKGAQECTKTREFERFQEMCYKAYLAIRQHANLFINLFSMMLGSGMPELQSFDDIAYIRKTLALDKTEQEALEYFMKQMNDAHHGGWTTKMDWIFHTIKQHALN
PI3Kalpha, sequence (P27986 whole entry partner, canonical isoform): as the sequence (P27986 whole entry partner, canonical isoform) above

Consider `CCn1c(-c2cnc(C)nc2)nc2c(-c3ccc4c(c3)C(C)(Cc3ccccc3)CN4C(C)=O)ncnc21` (centres unmarked) [Compound 1-19, 1-(3-Benzyl-5-(9-ethyl-8-(2-methylpyrimidin-5-yl)-9H-purin-6-yl)-3-methylindolin-1-yl)ethan-1-one], for which the “Relative Selectivity versus PI3Kalpha” value on PI3Kalpha is above 10.
What is called IC50 is the point on the concentration scale where inhibition reaches its midpoint. Consider `CCn1c(-c2cnc(C)nc2)nc2c(-c3ccc4c(c3)C(C)(N3CC(C)(C#N)C3)C(=O)N4)ncnc21` (single isomer, unassigned) [Compound 2-6, (R or S)-1-{5-[9-ethyl-8-(2-methylpyrimidin-5-yl)-9H-purin-6-yl]-3-methyl-2-oxo-2,3-dihydro-1H-indol-3-yl}-3-methylazetidine-3-carbonitrile], for which, at PI3Kdelta, the IC50 worked out at 3 nM. For the same molecule, the “Relative Selectivity versus PI3Kalpha” value on PI3Kalpha is recorded as above 10.
The like results for `CCn1c(-c2cnc(C)nc2)nc2c(-c3ccc4c(c3)C(C)(OCC(C)(C)F)C(=O)N4)ncnc21` (single isomer, unassigned) [Compound 2-55, (R or S)-5-(9-ethyl-8-(2-methylpyrimidin-5-yl)-9H-purin-6-yl)-3-(2-fluoro-2-methylpropoxy)-3-methylindolin-2-one] were, in that order, 200 nM and above 10.
Regarding `CCn1c(-c2cnc(C)nc2)nc2c(-c3ccc4c(c3)C(C)(Cc3ccccc3)C(=O)N4C)ncnc21` (single isomer, unassigned) [Compound 1-21, 3-Benzyl-5-(9-ethyl-8-(2-methylpyrimidin-5-yl)-9H-purin-6-yl)-1,3-dimethylindolin-2-one], the half-inhibitory concentration (IC50) on PI3Kdelta is 4 nM. In addition, on PI3Kalpha, the “Relative Selectivity versus PI3Kalpha” value is on record as above 10.
For the molecule `CCn1c(-c2cnc(C)nc2)nc2c(-c3ccc4c(c3)C(Cc3ccccc3)OC(=O)N4)ncnc21` (single isomer, unassigned) [Compound 4-2, (R or S)-4-benzyl-6-[9-ethyl-8-(2-methylpyrimidin-5-yl)-9H-purin-6-yl]-1,4-dihydro-2H-3,1-benzoxazin-2-one], the IC50 on PI3Kdelta turned out to be 35 nM. At PI3Kalpha, the “Relative Selectivity versus PI3Kalpha” value is given as above 10.
The like results for `CCN1CCCC12C(=O)Nc1ccc(-c3ncnc4c3nc(-c3cnc(C)nc3)n4C)cc12` (single isomer, unassigned) [Compound 3-28, (R or S)-1′-ethyl-5-(9-methyl-8-(2-methylpyrimidin-5-yl)-9H-purin-6-yl)spiro[indoline-3,2′-pyrrolidin]-2-one] were, in that order, 99 nM and above 10.
`CCn1c(-c2cnc(C)nc2)nc2c(-c3ccc4c(c3)C(C)(N[C@H]3C[C@H](OC)C3)C(=O)N4)ncnc21` (single isomer, unassigned) [Compound 2-83, 5-(9-ethyl-8-(2-methylpyrimidin-5-yl)-9H-purin-6-yl)-3-(((1R,3R)-3-methoxycyclobutyl)amino)-3(R or S)-methylindolin-2-one]: the IC50 on PI3Kdelta was determined as 21 nM. Moreover, at PI3Kalpha, the “Relative Selectivity versus PI3Kalpha” value is above 10.
The like results for `CCn1c(-c2cnc(C)nc2)nc2c(-c3ccc4c(c3)C(C)(N[C@@H](C)C3CC3)C(=O)N4)ncnc21` (single isomer, unassigned) [Compound 2-13, 3-{[(1S)-1-cyclopropylethyl]amino}-5-[9-ethyl-8-(2-methylpyrimidin-5-yl)-9H-purin-6-yl]-3(R or S)-methyl-1,3-dihydro-2H-indol-2-one] were, in that order, 32 nM and above 10.
The like results for `CCn1c(-c2cnc(C)nc2)nc2c(-c3ccc4c(c3)C(C)(CC3(C)COC3)C(=O)N4)ncnc21` (single isomer, unassigned) [Compound 1-6, (R or S)-5-[9-ethyl-8-(2-methylpyrimidin-5-yl)-9H-purin-6-yl]-3-methyl-3-[(3-methyloxetan-3-yl)methyl]-1,3-dihydro-2H-indol-2-one] were, in that order, 15 nM and above 10.
`CCN1CCCC12C(=O)Nc1ccc(-c3ncnc4c3nc(-c3cnc(C)nc3)n4CC)cc12` (single isomer, unassigned) [Compound 3-26, (R or S)-1′-ethyl-5-(9-ethyl-8-(2-methylpyrimidin-5-yl)-9H-purin-6-yl)spiro[indoline-3,2′-pyrrolidin]-2-one]: the IC50 on PI3Kdelta turned out to be 29 nM. Also, the “Relative Selectivity versus PI3Kalpha” value at PI3Kalpha is given as above 10.
For `CCn1c(-c2cnc(C)nc2)nc2c(-c3ccc4c(c3)CNS4(=O)=O)ncnc21` [Compound 4-13, 5-(9-ethyl-8-(2-methylpyrimidin-5-yl)-9H-purin-6-yl)-2,3-dihydrobenzo[d]isothiazole 1,1-dioxide], on PI3Kalpha, the “Relative Selectivity versus PI3Kalpha” value was 9.
Same read-out and setting: next, `Cc1ncc(-c2nc3c(-c4ccc5c(c4)C4(CCN(C(=O)C6CC6)CC4)C(=O)N5)ncnc3n2C)cn1` [Compound 3-25, 1′-(cyclopropanecarbonyl)-5-(9-methyl-8-(2-methylpyrimidin-5-yl)-9H-purin-6-yl)spiro[indoline-3,4′-piperidin]-2-one]: above 10; `CCn1c(-c2cnc(C)nc2)nc2c(-c3ccc4c(c3)CN(C)S4(=O)=O)ncnc21` [Compound 4-14, 5-(9-ethyl-8-(2-methylpyrimidin-5-yl)-9H-purin-6-yl)-2-methyl-2,3-dihydrobenzo[d]isothiazole 1,1-dioxide]: above 10; `CCn1c(-c2cnc(C)nc2)nc2c(-c3ccc4c(c3)C(C)(Cc3ccccc3)CN4C)ncnc21` (centres unmarked) [Compound 1-22, 6-(3-Benzyl-1,3-dimethylindolin-5-yl)-9-ethyl-8-(2-methylpyrimidin-5-yl)-9H-purine]: above 10.
The same measure, in the same setting: to `CCn1c(-c2cnc(C)nc2)nc2c(-c3ccc4oc(=O)n(CC5CCOCC5)c4c3)ncnc21` [Compound 5-4, 5-[9-ethyl-8-(2-methylpyrimidin-5-yl)-9H-purin-6-yl]-3-(tetrahydro-2H-pyran-4-ylmethyl)-1,3-benzoxazol-2(3H)-one] belongs above 10.
Still for that read-out and setting: to `Cc1ncc(-c2nc3c(-c4ccc5c(c4)C(C)(OCC4CC4)C(=O)N5)ncnc3n2C)cn1` (racemic) [Compound 2-75, 3-(cyclopropylmethoxy)-3-methyl-5-(9-methyl-8-(2-methylpyrimidin-5-yl)-9H-purin-6-yl)indolin-2-one] belongs above 10.
As to `CCn1c(-c2cnc(C)nc2)nc2c(-c3ccc4oc(=O)n(Cc5ccccc5)c4c3)ncnc21` [Compound 5-3, 3-benzyl-5-[9-ethyl-8-(2-methylpyrimidin-5-yl)-9H-purin-6-yl]-1,3-benzoxazol-2(3H)-one], on PI3Kalpha, the “Relative Selectivity versus PI3Kalpha” value is listed as above 10.
On the same count and under the same terms, next, `CCn1c(-c2cnc(C)nc2)nc2c(-c3ccc4c(c3)C(C)(OC3CCC3)C(=O)N4)ncnc21` (racemic) [Compound 2-74, 3-cyclobutoxy-5-(9-ethyl-8-(2-methylpyrimidin-5-yl)-9H-purin-6-yl)-3-methylindolin-2-one]: above 10.
Still for that read-out and setting: to `CCn1c(-c2cnc(C)nc2)nc2c(-c3ccc4c(c3)C(C#N)(N3CC(C)(OC)C3)C(=O)N4)ncnc21` (centres unmarked) [Compound 2-77, 5-(9-ethyl-8-(2-methylpyrimidin-5-yl)-9H-purin-6-yl)-3-(3-methoxy-3-methylazetidin-1-yl)-2-oxoindoline-3-carbonitrile] belongs above 10.
Same read-out and setting: to `CCn1c(-c2cnc(C)nc2)nc2c(-c3ccc4c(c3)C(C)(OC(C)C)C(=O)N4)ncnc21` (racemic) [Compound 2-73, 5-(9-ethyl-8-(2-methylpyrimidin-5-yl)-9H-purin-6-yl)-3-isopropoxy-3-methylindolin-2-one] belongs above 10; to `CCn1c(-c2cnc(C)nc2)nc2c(-c3ccc4c(c3)C(C)(Cc3cncnc3)C(=O)N4)ncnc21` (racemic) [Compound 1-33, 5-(9-ethyl-8-(2-methylpyrimidin-5-yl)-9H-purin-6-yl)-3-methyl-3-(pyrimidin-5-ylmethyl)indolin-2-one], above 10.
On to `CCn1c(-c2cnc(C)nc2)nc2c(-c3ccc4c(c3)C3(CCCC3)C(=O)N4)ncnc21` [Compound 3-34, 5′-(9-ethyl-8-(2-methylpyrimidin-5-yl)-9H-purin-6-yl)spiro[cyclopentane-1,3′-indolin]-2′-one], for which, on PI3Kalpha, the “Relative Selectivity versus PI3Kalpha” value was above 10.
Still for that read-out and setting: to `CCn1c(-c2cnc(C)nc2)nc2c(-c3ccc4c(c3)CNC4=O)ncnc21` [Compound 4-15, 5-(9-ethyl-8-(2-methylpyrimidin-5-yl)-9H-purin-6-yl)isoindolin-1-one] belongs 7; to `CCn1c(-c2cnc(C)nc2)nc2c(-c3ccc4c(c3)C(C)(c3ccccc3)OC(=O)N4)ncnc21` (centres unmarked) [Compound 4-16, 6-(9-ethyl-8-(2-methylpyrimidin-5-yl)-9H-purin-6-yl)-4-methyl-4-phenyl-1,4-dihydro-2H-benzo[d][1,3]oxazin-2-one], above 10; to `CCn1c(-c2cnc(C)nc2)nc2c(-c3ccc4c(c3)C(C#N)(CC(C)C)C(=O)N4)ncnc21` (centres unmarked) [Compound 1-11, 5-(9-Ethyl-8-(2-methylpyrimidin-5-yl)-9H-purin-6-yl)-3-isobutyl-2-oxoindoline-3-carbonitrile], above 10.
The same measure, in the same setting: to `CCn1c(-c2cnc(C)nc2)nc2c(-c3ccc4c(c3)C(C)(Cc3ccccc3)CN4)ncnc21` (centres unmarked) [Compound 1-18, 6-(3-Benzyl-3-methylindolin-5-yl)-9-ethyl-8-(2-methylpyrimidin-5-yl)-9H-purine] belongs above 10.
